Target: acetylcholinesterase (AChE) (Tetronarce californica, UniProt P04058)
Experiment: Ellman colorimetric AChE assay with acetylthiocholine iodide and DTNB, […] nm, triplicate
Format: biochemical

Sequence of acetylcholinesterase (AChE) (P04058 22-564): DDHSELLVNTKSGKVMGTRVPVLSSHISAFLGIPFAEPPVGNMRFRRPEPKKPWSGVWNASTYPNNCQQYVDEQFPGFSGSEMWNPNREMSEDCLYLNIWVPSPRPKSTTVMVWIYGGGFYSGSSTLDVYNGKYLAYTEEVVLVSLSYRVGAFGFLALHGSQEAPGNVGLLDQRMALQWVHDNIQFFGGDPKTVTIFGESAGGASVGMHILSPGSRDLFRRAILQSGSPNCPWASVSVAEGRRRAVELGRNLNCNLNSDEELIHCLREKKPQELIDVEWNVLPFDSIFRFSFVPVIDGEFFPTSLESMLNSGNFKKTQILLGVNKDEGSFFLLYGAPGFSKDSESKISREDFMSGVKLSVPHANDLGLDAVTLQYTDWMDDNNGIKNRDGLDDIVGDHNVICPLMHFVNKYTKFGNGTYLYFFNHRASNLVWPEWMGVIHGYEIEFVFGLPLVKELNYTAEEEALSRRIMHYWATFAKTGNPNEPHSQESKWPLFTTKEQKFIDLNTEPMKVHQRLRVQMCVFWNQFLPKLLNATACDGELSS

## Cc1nc2ccccc2c2cc[nH]c12 [compound 1, 4-Methyl-3H-pyrrolo[2,3-c]quinoline]
  IC50: 4.9 ± 0.9 µM

From publication PMC2630848, “Acetylcholinesterase-Inhibiting Activity of Pyrrole Derivatives from a Novel Marine Gliding Bacterium, Rapidithrix thailandica” (Marine Drugs, 2008)
